Earlier results on 1 molecule are cited in patent US20060084141A1, “Biosynthetic gene cluster for the maytansinoid antitumor agent ansamitocin” (priority 2001, published 2006).

Data set [1] has as its system various murine leukemia cell lines. The note with it: in vitro.
The subject of data set [2] is human carcinoma and leukemia cell lines. The settings on record: in vitro.
The test system of data set [3] is patients with different types of tumors. The note with it: phase II trials.
Data set [4] concerns human cancer patients.

On to `COc1cc2cc(c1Cl)N(C)C(=O)C[C@H](OC(=O)[C@H](C)N(C)C(C)=O)[C@]1(C)O[C@H]1[C@H](C)[C@@H]1C[C@@](O)(NC(=O)O1)[C@H](OC)/C=C/C=C(\C)C2` [Maytansine], for which the dose inhibiting growth in data set [1] was 10^−3 to 10^−7 μg/ml. Moreover, in data set [2], the dose inhibiting growth is reported as 10^−3 to 10^−7 μg/ml. Further, the response rates entry in data set [3] is recorded as “Insignificant response rates”. In addition, in data set [4] (phase I (early) trials), the tumor response entry is “A few partial responses”. In addition, in data set [4] (phase I trials), the dose limiting toxicity result is “dose limiting gastrointestinal toxicity and neurotoxicity”; the myelosuppression result is recorded as “modest levels of mylosuppression”.
